Source: patent US11286268B1, “EIF4E-inhibiting compounds and methods” (EFFECTOR THERAPEUTICS, INC., priority 2019, dated 2022)
Like-named read-outs stand apart in the source and are kept apart here.

Target: recombinant eIF4E (Homo sapiens (Human), UniProt P06730)
Assay: Fluorescence polarization competition assay for eIF4E binding potency
Experimental: Compounds were screened for eIF4E binding potency using a fluorescence polarization competition assay. All binding reactions were performed in fluorescence polarization buffer (FPB) containing 20 mM Tris pH 7.5, 100 mM NaCl, 1 mM DTT, and 0.02% Tween-20. Final binding reactions contained 75 nM recombinant eIF4E (Beryllium, custom order), 20 nM EDA-m^7GDP-ATTO-550 (Jena Bioscience, NU-827-550) and varying concentrations of the inhibitory compound of interest. Final DMSO concentration in each reaction was 1%.
eIF4E protein was pre-incubated with EDA-m^7GDP-ATTO-550 in FPB at 2× concentrations for 5 minutes prior to the addition of compounds. Compounds (100×) were prepared using 3-fold serial dilutions in 100% DMSO, and subsequently diluted 1:50 in FPB to produce 2× stocks. 50 μl of 2× eIF4E/EDA-m^7GDP-ATTO-550 were transferred to the wells of a 96-well half-area black flat bottom polystyrene plate. 50 μl of 2× test compound were added, and binding reactions were allowed to equilibrate for 30 minutes at room temperature while protected from light. The fluorescent polarization signal was detected using a Victor 2 multi-label counter (Perkin Elmer) and the concentration necessary to achieve inhibition of eIF4E/EDA-m^7GDP-ATTO-550 binding by 50% (IC50) was calculated using data from an 8-point compound dilution series.
In Table 4A, IC50 values of less than 0.05 μM are labelled as “+++”, from 1 to 0.05 μM are labelled as “++”, and greater than 1 μM are labelled as “+”. ND=not determined.

[1] = fluorescence polarization competition, 75 nM recombinant eIF4E, 20 nM EDA-m7GDP-ATTO-550, IC50 class, read-out: elF4E FP
[2] = inhibition of eIF4E/EDA-m7GDP-ATTO-550 binding by 50%, Table 4B calculated values, read-out: IC50

Chain of recombinant eIF4E (P06730 whole entry): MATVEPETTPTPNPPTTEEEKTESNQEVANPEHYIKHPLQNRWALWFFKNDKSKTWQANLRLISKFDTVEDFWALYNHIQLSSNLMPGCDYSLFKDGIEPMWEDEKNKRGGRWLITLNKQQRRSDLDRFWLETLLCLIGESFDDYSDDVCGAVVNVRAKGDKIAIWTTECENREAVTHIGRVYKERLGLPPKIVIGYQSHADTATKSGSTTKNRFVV

IC50 [1]	IC50 [2]	Structure (SMILES)
> 1000 nM	64300 nM	Cn1ccc2c(=O)n(CCOc3ccc(Cl)cc3-c3cccc(C(=O)O)c3)cnc21 [compound 68]
> 1000 nM	26800 nM	Cn1ccc2ncn(CCOc3ccc(Cl)cc3-c3cccc(C(=O)O)c3)c(=O)c21 [compound 69]
50 to 1000 nM	432 nM	CCc1nc2cnccc2c(=O)n1CCOc1ccc(Cl)cc1-c1cccc(C(=O)O)c1 [compound 70]
> 1000 nM	3100 nM	Cc1nc2ccccc2c(=O)n1CCOc1ccc(Cl)cc1-c1cccc(C(=O)O)c1 [compound 72]
50 to 1000 nM	83.2 nM	N#Cc1cccc2ncn(CCOc3ccc(Cl)cc3-c3cccc(C(=O)O)c3)c(=O)c12 [compound 73]
50 to 1000 nM	423 nM	N#Cc1ccc2ncn(CCOc3ccc(Cl)cc3-c3cccc(C(=O)O)c3)c(=O)c2c1 [compound 74]
> 1000 nM	1400 nM	N#Cc1cccc2c(=O)n(CCOc3ccc(Cl)cc3-c3cccc(C(=O)O)c3)cnc12 [compound 75]
> 1000 nM	2300 nM	O=C(O)c1cccc(-c2cc(Cl)ccc2OCCn2cnc3c(F)cccc3c2=O)c1 [compound 76]
> 1000 nM	1440 nM	O=C(O)c1cccc(-c2cc(Cl)ccc2OCCn2cnc3cc(F)c(F)cc3c2=O)c1 [compound 77]
> 1000 nM	1630 nM	O=C(O)c1cccc(-c2cc(Cl)ccc2OCCn2cnc3cc(F)cc(F)c3c2=O)c1 [compound 78]
> 1000 nM	1650 nM	N#Cc1cc2c(=O)n(CCOc3ccc(Cl)cc3-c3ccc(C(=O)O)o3)cnc2cn1 [compound 79]
50 to 1000 nM	110 nM	N#Cc1cc2c(=O)n(CCOc3ccc(Cl)cc3-c3csc(C(=O)O)c3)cnc2cn1 [compound 80]
> 1000 nM	4220 nM	N#Cc1cc2c(=O)n(CCOc3ccc(Cl)cc3-c3nc(C(=O)O)cs3)cnc2cn1 [compound 81]
> 1000 nM	1660 nM	Cn1cc(-c2cc(Cl)ccc2OCCn2cnc3cnc(C#N)cc3c2=O)cc1C(=O)O [compound 82]
> 1000 nM	2560 nM	N#Cc1cc2c(=O)n(CCOc3ccc(Cl)cc3-c3cc(C(=O)O)cs3)cnc2cn1 [compound 83]
> 1000 nM	1250 nM	Cn1nc(C(=O)O)cc1-c1cc(Cl)ccc1OCCn1cnc2cnc(C#N)cc2c1=O [compound 84]
> 1000 nM	1850 nM	N#Cc1cc2c(=O)n(CCOc3ccc(Cl)cc3-c3cncc(C(=O)O)n3)cnc2cn1 [compound 85]
> 1000 nM	49700 nM	N#Cc1cc2c(=O)n(CCOc3ccc(Cl)cc3-c3cc(C(=O)O)c(F)cc3F)cnc2cn1 [compound 86]
> 1000 nM	1160 nM	COc1cc(-c2cc(Cl)ccc2OCCn2cnc3cnc(C#N)cc3c2=O)cc(C(=O)O)n1 [compound 87]
> 1000 nM	1680 nM	CNc1ncc(-c2cc(Cl)ccc2OCCn2cnc3cnc(C#N)cc3c2=O)nc1C(=O)O [compound 88]
> 1000 nM	> 3000 nM	N#Cc1cc2c(=O)n(CCOc3ccc(Cl)cc3-c3cc(C(=O)O)cc(F)c3F)cnc2cn1 [compound 89]
> 1000 nM	1230 nM	COc1ncc(-c2cc(Cl)ccc2OCCn2cnc3cnc(C#N)cc3c2=O)nc1C(=O)O [compound 90]
50 to 1000 nM	287 nM	N#Cc1cc2c(=O)n(CCOc3ccc(Cl)cc3-c3ccc(F)c(C(=O)O)c3F)cnc2cn1 [compound 91]
> 1000 nM	> 3000 nM	N#Cc1cc2c(=O)n(CCOc3ccc(Cl)cc3-c3cc(C(=O)O)ccc3C3CC3)cnc2cn1 [compound 92]
> 1000 nM	1400 nM	N#Cc1cc(C(=O)O)cc(-c2cc(Cl)ccc2OCCn2cnc3cnc(C#N)cc3c2=O)c1 [compound 93]
> 1000 nM	1420 nM	N#Cc1cc2c(=O)n(CCOc3ccc(Cl)cc3-c3ccc(C#N)c(C(=O)O)c3)cnc2cn1 [compound 94]
> 1000 nM	2860 nM	CSc1cc(C(=O)O)cc(-c2cc(Cl)ccc2OCCn2cnc3cnc(C#N)cc3c2=O)c1 [compound 95]
> 1000 nM	2100 nM	N#Cc1cc2c(=O)n(CCOc3ccc(Cl)cc3-c3cc4c(c(C(=O)O)c3)OCO4)cnc2cn1 [compound 96]

IC50 [1]	IC50 [2]	Structure (SMILES)
> 1000 nM	> 3000 nM	COc1cc(F)c(C(=O)O)cc1-c1cc(Cl)ccc1OCCn1cnc2cnc(C#N)cc2c1=O [compound 97]
50 to 1000 nM	564 nM	CSc1ncc(-c2cc(Cl)ccc2OCCn2cnc3cnc(C#N)cc3c2=O)nc1C(=O)O [compound 98]
> 1000 nM	3420 nM	N#Cc1cc2c(=O)n(CCOc3ccc(Cl)cc3-c3cc(C(=O)O)c4ccccc4n3)cnc2cn1 [compound 99]
> 1000 nM	3480 nM	N#Cc1cc2c(=O)n(CCOc3ccc(Cl)cc3-c3cc(C(=O)O)c4ncccc4c3)cnc2cn1 [compound 100]
> 1000 nM	43800 nM	N#Cc1cc2c(=O)n(CCOc3ccc(Cl)cc3-c3cc(C(=O)O)c(F)c(F)c3F)cnc2cn1 [compound 101]
> 1000 nM	4820 nM	Cn1cc2c(C(=O)O)cc(-c3cc(Cl)ccc3OCCn3cnc4cnc(C#N)cc4c3=O)cc2n1 [compound 102]
50 to 1000 nM	747 nM	CC(=O)Nc1ccc(-c2cc(Cl)ccc2OCCn2cnc3cnc(C#N)cc3c2=O)cc1C(=O)O [compound 103]
50 to 1000 nM	586 nM	N#Cc1cc2c(=O)n(CCOc3ccc(Cl)cc3-c3cc4c(c(C(=O)O)c3)OCC4)cnc2cn1 [compound 104]
> 1000 nM	> 3000 nM	CC(C)(C)c1cc(C(=O)O)cc(-c2cc(Cl)ccc2OCCn2cnc3cnc(C#N)cc3c2=O)c1 [compound 105]
> 1000 nM	1380 nM	N#Cc1cc2c(=O)n(CCOc3ccc(Cl)cc3-c3cc(CCO)cc(C(=O)O)c3)cnc2cn1 [compound 106]
> 1000 nM	3820 nM	COc1cc(-c2cc(Cl)ccc2OCCn2cnc3cnc(C#N)cc3c2=O)cc(C(=O)O)c1OC [compound 107]
> 1000 nM	11200 nM	COc1c(Cl)cc(-c2cc(Cl)ccc2OCCn2cnc3cnc(C#N)cc3c2=O)cc1C(=O)O [compound 108]
> 1000 nM	19200 nM	N#Cc1cc2c(=O)n(CCOc3ccc(Cl)cc3-c3cnc(C(F)F)c(C(=O)O)c3)cnc2cn1 [compound 109]
> 1000 nM	26900 nM	CC(C)(C#N)c1cc(C(=O)O)cc(-c2cc(Cl)ccc2OCCn2cnc3cnc(C#N)cc3c2=O)c1 [compound 110]
50 to 1000 nM	434 nM	N#Cc1cc2c(=O)n(CCOc3ccc(Cl)cc3-c3ccc(OC(F)F)c(C(=O)O)c3)cnc2cn1 [compound 111]
> 1000 nM	> 3000 nM	CS(=O)(=O)c1cc(C(=O)O)cc(-c2cc(Cl)ccc2OCCn2cnc3cnc(C#N)cc3c2=O)c1 [compound 112]
50 to 1000 nM	804 nM	N#Cc1cc2c(=O)n(CCOc3ccc(Cl)cc3-c3ccc(OC(F)(F)F)c(C(=O)O)c3)cnc2cn1 [compound 113]
50 to 1000 nM	333 nM	COc1c(N)cc(-c2cc(Cl)ccc2OCCn2cnc3cnc(C#N)cc3c2=O)cc1C(=O)O [compound 114]
> 1000 nM	> 3000 nM	Cc1c(C(=O)O)ccnc1-c1cc(Cl)ccc1OCCn1cnc2cnc(C#N)cc2c1=O [compound 115]
> 1000 nM	> 3000 nM	Cc1cc(C(=O)O)c(C#N)c(-c2cc(Cl)ccc2OCCn2cnc3cnc(C#N)cc3c2=O)n1 [compound 116]
> 1000 nM	> 3000 nM	N#Cc1cc2c(=O)n(CCOc3ccc(Cl)cc3-c3cc(C(=O)O)c4cc[nH]c4n3)cnc2cn1 [compound 117]
50 to 1000 nM	416 nM	N#Cc1cc2c(=O)n(CCOc3ccc(Cl)cc3-c3cccc4c(C(=O)O)nccc34)cnc2cn1 [compound 118]
< 50 nM	19.9 nM	Cc1nc2cc(Cl)c(C(F)F)c(C#N)c2c(=O)n1CCOc1ccc(Cl)cc1-c1ccnc2c(C(=O)O)csc12 [compound 119]
< 50 nM	35.7 nM	Cc1nc2cc(C(F)(F)F)cc(C#N)c2c(=O)n1CC#Cc1ccc(Cl)cc1-c1ccnc2c(C(=O)O)csc12 [compound 120]
< 50 nM	24.4 nM	Cc1nc2cc(C(F)(F)F)cc(C#N)c2c(=O)n1CCOc1ccc(Cl)cc1-c1ccc(F)c2c(C(=O)O)csc12 [compound 122]
< 50 nM	36.5 nM	Cc1sc2c(-c3cc(Cl)ccc3OCCn3c(C)nc4c(F)cc(C(F)F)c(C#N)c4c3=O)ccnc2c1C(=O)O [compound 123]
> 1000 nM	9130 nM	COc1ccc(OCCn2cnc3cnc(C#N)cc3c2=O)c(-c2cccc(C(=O)O)c2)c1 [compound 124]

Structure (SMILES)	IC50 [1]	IC50 [2]
Cc1cc(-c2cc(Cl)ccc2OCCn2c(C)nc3cc(C(F)(F)F)cc(C#N)c3c2=O)c2scc(C(=O)O)c2n1 [compound 121]	< 50 nM	37.5 nM
